Laboratory results from US11603356B2, “Amorphous form of a complement component C5a receptor” (CHEMOCENTRYX, INC., priority 2019, dated 2023).
Values after ≈ are worked out from the molar mass of the structure shown. Read-outs that look alike come from different tables or passages of the source.

What was measured:
[1] = Kinetic solubility in 0.1 N HCl, FaSSGF and FeSSIF at 37° C.; assay type: physicochemical
Protocol: The in vitro solubility of a crystalline form of Compound 1 and the amorphous form of Compound 1 was tested.
The amorphous form was prepared as described in Example 2, Method 1, and the crystalline form of Compound 1 was prepared as described in Example 1.
Crystalline and amorphous forms of Compound 1 were saturated in three different media: 0.1 N HCl solution, Fasted State Simulated Gastric Fluid (FaSSGF), and Fed State Simulated Intestinal Fluid (FeSSIF). The samples were shaken inside a 37° C. water bath at 40 rpm. The concentration of Compound 1 dissolved in these samples was measured by HPLC at four different time points (0.5, 1, 2 and 4 hours).

[2] = In vivo rat PK study, oral aqueous liquid suspension formulation
Protocol: An in vivo rat PK study was conducted to compare the PK profile and bioavailability of crystalline form against amorphous form of Compound 1 in an aqueous liquid suspension formulation, which contained 0.5% w/v Hydroxypropyl Cellulose (Klucel GF grade) and 0.5% w/v Poloxamer F-68 (BASF Kolliphor P188). Each animal was orally administrated 10 mg/kg of Compound 1 at 5 mL/kg dosing volume (a dosing concentration of 2 mg/mL).

[3] = Solubility in IV formulation saline/PEG400/Tween80; assay type: physicochemical
Protocol: Intravenous (IV) formulations of a crystalline form of Compound 1 and the amorphous form of Compound 1 were prepared by contacting the amorphous of crystalline Compound 1 with saline/PEG400/Tween80 (88:10:1). The crystalline form of Compound 1 was prepared as described in Example 1, the amorphous form of Compound was prepared as described in Example 2, Method 1.

[4] = Stability storage test (25° C./60% RH, 12 months; HPLC, KF, XRPD); assay type: physicochemical; conditions: for Specified Individual Related Substances (HPLC): RRT1.05
Protocol: A sample of amorphous form of Compound 1 was tested by different analytical methods and the data was reported in the “Time Zero” column (Table 3). These analytical methods included: HPLC and Karl Fisher (KF). The sample was placed in double Low-Density Polyethylene (LDPE) bags, sealed with a cable tie, then placed in a High-Density Polyethylene (HDPE) bottle with foil and heat-induction sealed, with 0.5 g desiccant between LDPE bags. The HDPE bottle was stored inside an environment chamber at 25° C. and 60% relative humidity (RH). After 12 months inside the environment chamber, the sample was tested again by the same analytical methods.

[5] = Dynamic vapor sorption (DVS) of the amorphous form; assay type: physicochemical
Protocol: To evaluate the hygroscopicity and physical stability of the amorphous form of Compound 1 under different humidity, dynamic vapor sorption (DVS) data was collected at 25° C. after the sample was pre-equilibrated at 0% RH to remove unbounded water. DVS was measured using a VTI SGA-100 Vapor Sorption Analyzer. Sorption and desorption data was collected over a range from 5% to 95% RH at 10% RH increments under a nitrogen purge. The equilibrium criterion used for analysis was less than 0.0100% weight change in 5 minutes with a maximum equilibrium time of 3 hours.

[6] = oral 10 mg/kg, suspension in 0.5% w/v Klucel GF and 0.5% w/v Poloxamer F-68, 10 mg/kg
[7] = saline/PEG400/Tween80 (88:10:1), 0.5 Hr.
[8] = saline/PEG400/Tween80 (88:10:1), 1 Hr.
[9] = saline/PEG400/Tween80 (88:10:1), 2 Hr.
[10] = saline/PEG400/Tween80 (88:10:1), 4 Hr.

## Cc1ccc(NC(=O)[C@H]2CCCN(C(=O)c3c(C)cccc3F)[C@H]2c2ccc(NC3CCCC3)cc2)cc1C(F)(F)F [Crystalline Compound 1, (2R,3S)-2-(4-(cyclopentylamino)phenyl)-1-(2-fluoro-6-methylbenzoyl)-N-(4-methyl-3-(trifluoromethyl)phenyl)piperidine-3-carboxamide]
[1]; 0.1N HCl (pH 1.06), 0.5 Hr.
  CCX168 Solubility at 37° C.: ND (ND = Not Detected)
[1]; 0.1N HCl (pH 1.06), 1 Hr.
  CCX168 Solubility at 37° C.: ND (ND = Not Detected)
[1]; 0.1N HCl (pH 1.06), 2 Hr.
  CCX168 Solubility at 37° C.: ND (ND = Not Detected)
[1]; 0.1N HCl (pH 1.06), 4 Hr.
  CCX168 Solubility at 37° C.: ND (ND = Not Detected)
[1]; FaSSGF (pH 1.64), 0.5 Hr.
  CCX168 Solubility at 37° C.: ND (ND = Not Detected)
[1]; FaSSGF (pH 1.64), 1 Hr.
  CCX168 Solubility at 37° C.: ND (ND = Not Detected)
[1]; Fasted State Simulated Gastric Fluid (FaSSGF), 37 °C, pH 1.64, fassgf or other biorelevant, thermodynamic from solid, FaSSGF (pH 1.64), 2 Hr., read-out: CCX168 Solubility at 37° C.
  solubility at 2 h: < 3.1 µg/mL
[1]; Fasted State Simulated Gastric Fluid (FaSSGF), 37 °C, pH 1.64, fassgf or other biorelevant, thermodynamic from solid, FaSSGF (pH 1.64), 4 Hr., read-out: CCX168 Solubility at 37° C.
  solubility at 4 h: < 3.1 µg/mL
[1]; FeSSIF (pH 4.90), 1 Hr.
  CCX168 Solubility at 37° C.: ND (ND = Not Detected)
[1]; FeSSIF (pH 4.90), 2 Hr.
  CCX168 Solubility at 37° C.: ND (ND = Not Detected)
[1]; FeSSIF (pH 4.90), 4 Hr.
  CCX168 Solubility at 37° C.: ND (ND = Not Detected)
[1]; Fed State Simulated Intestinal Fluid (FeSSIF), 37 °C, pH 4.9, fessif, thermodynamic from solid, FeSSIF (pH 4.90), 0.5 Hr., read-out: CCX168 Solubility at 37° C.
  solubility at 0.5 h: < 3.1 µg/mL
[2]; in vivo, po, 10 mg/kg, oral 10 mg/kg, suspension in 0.5% w/v Klucel GF and 0.5% w/v Poloxamer F-68
  half-life: 3.9 h
[2]; in vivo, po, 10 mg/kg, oral 10 mg/kg, suspension in 0.5% w/v Klucel GF and 0.5% w/v Poloxamer F-68, read-out: MRT
  MRT: 6 h
[2]; in vivo, po, 10 mg/kg, oral 10 mg/kg, suspension in 0.5% w/v Klucel GF and 0.5% w/v Poloxamer F-68, read-out: Tmax
  Tmax: 1.5 h
[2]; [6]
  AUC0-t: 983 ng·h/mL
  AUCinf: 996 ng·h/mL
  Cmax: 129 ng/mL
[3]; [7]
  Solubility in IV Formulation: 15.2 µg/mL (≈ 26.1 µM)
[3]; [8]
  Solubility in IV Formulation: 17.2 µg/mL (≈ 29.6 µM)
[3]; [9]
  Solubility in IV Formulation: 20.5 µg/mL (≈ 35.2 µM)
[3]; [10]
  Solubility in IV Formulation: 21.6 µg/mL (≈ 37.1 µM)
[3]; saline/PEG400/Tween80 (88:10:1), 8 Hr.
  Solubility in IV Formulation: 22.0 µg/mL (≈ 37.8 µM)
[3]; saline/PEG400/Tween80 (88:10:1), 24 Hr.
  Solubility in IV Formulation: 21.9 µg/mL (≈ 37.7 µM)
[3]; saline/PEG400/Tween80 (88:10:1), 48 Hr.
  Solubility in IV Formulation: 21.9 µg/mL (≈ 37.7 µM)
[3]; saline/PEG400/Tween80 (88:10:1), 96 Hr.
  Solubility in IV Formulation: 21.6 µg/mL (≈ 37.1 µM)

## Cc1ccc(NC(=O)[C@H]2CCCN(C(=O)c3c(C)cccc3F)[C@H]2c2ccc(NC3CCCC3)cc2)cc1C(F)(F)F [Amorphous Compound 1, (2R,3S)-2-(4-(cyclopentylamino)phenyl)-1-(2-fluoro-6-methylbenzoyl)-N-(4-methyl-3-(trifluoromethyl)phenyl)piperidine-3-carboxamide]
[1]; 0.1N HCl (pH 1.06), 0.5 Hr.
  CCX168 Solubility at 37° C.: 47.5 µg/mL
[1]; 0.1N HCl (pH 1.06), 1 Hr.
  CCX168 Solubility at 37° C.: 54.0 µg/mL
[1]; 0.1N HCl (pH 1.06), 2 Hr.
  CCX168 Solubility at 37° C.: 74.7 µg/mL
[1]; 0.1N HCl (pH 1.06), 4 Hr.
  CCX168 Solubility at 37° C.: 61.7 µg/mL
[1]; FaSSGF (pH 1.64), 0.5 Hr.
  CCX168 Solubility at 37° C.: 9.3 µg/mL
[1]; FaSSGF (pH 1.64), 1 Hr.
  CCX168 Solubility at 37° C.: 7.8 µg/mL
[1]; FaSSGF (pH 1.64), 2 Hr.
  CCX168 Solubility at 37° C.: BQL (BQL = Less than 3.1 μg/mL)
[1]; FaSSGF (pH 1.64), 4 Hr.
  CCX168 Solubility at 37° C.: ND (ND = Not Detected)
[1]; FeSSIF (pH 4.90), 0.5 Hr.
  CCX168 Solubility at 37° C.: 6.0 µg/mL
[1]; FeSSIF (pH 4.90), 1 Hr.
  CCX168 Solubility at 37° C.: 9.9 µg/mL
[1]; FeSSIF (pH 4.90), 2 Hr.
  CCX168 Solubility at 37° C.: 9.0 µg/mL
[1]; FeSSIF (pH 4.90), 4 Hr.
  CCX168 Solubility at 37° C.: 7.4 µg/mL
[4]; RRT0.45, Time Zero
  Unspecified Individual Related Substances (HPLC): RRT0.45: <0.05%
[4]; RRT0.50, Time Zero
  Unspecified Individual Related Substances (HPLC): RRT0.50: <0.05%
[4]; RRT0.90, Time 12 months (25° C./60% RH)
  Unspecified Individual Related Substances (HPLC): RRT0.90: 0.20%
[4]; RRT0.90, Time Zero
  Unspecified Individual Related Substances (HPLC): RRT0.90: 0.05%
[4]; RRT0.96, Time 12 months (25° C./60% RH)
  Unspecified Individual Related Substances (HPLC): RRT0.96: <0.05%
[4]; RRT0.96, Time Zero
  Unspecified Individual Related Substances (HPLC): RRT0.96: <0.05%
[4]; Time 12 months (25° C./60% RH)
  Specified Individual Related Substances (HPLC): RRT1.05: <0.05%
  Appearance: Off-white Powder
  Potency (HPLC): 98.9% w/w
  Total Impurities and Related Substances (HPLC): 0.20%
  Water Content (KF): 0.31%
  enantiomeric impurity: 0.0%
[4]; Time Zero
  Specified Individual Related Substances (HPLC): RRT1.05: 0.08%
  Appearance: Off-white Powder
  Potency (HPLC): 99.5% w/w
  Total Impurities and Related Substances (HPLC): 0.38%
  Water Content (KF): 0.33%
  enantiomeric impurity: 0.0%
[4]; RRT1.06, Time 12 months (25° C./60% RH)
  Unspecified Individual Related Substances (HPLC): RRT1.06: 0.07%
[4]; RRT1.14, Time 12 months (25° C./60% RH)
  Unspecified Individual Related Substances (HPLC): RRT1.14: <0.05%
[4]; RRT1.14, Time Zero
  Unspecified Individual Related Substances (HPLC): RRT1.14: 0.05%
[4]; RRT1.16, Time Zero
  Unspecified Individual Related Substances (HPLC): RRT1.16: <0.05%
[4]; RRT1.20, Time Zero
  Unspecified Individual Related Substances (HPLC): RRT1.20: 0.22%
[4]; RRT1.21, Time Zero
  Unspecified Individual Related Substances (HPLC): RRT1.21: 0.06%
[4]; RRT1.22, Time Zero
  Unspecified Individual Related Substances (HPLC): RRT1.22: <0.05%
[5]; DVS, 25° C.
  hygroscopicity: low hygroscopicity
  hysteresis between adsorption and desorption (DVS plot): no hysteresis
[5]; XRPD, FIG. 7
  form change by XRPD before and after DVS test: no form change
[5]; about 0% RH to about 65% RH at 25° C.
  weight gain after dynamic vapor sorption cycle: about 0.31%
[2]; in vivo, oral 10 mg/kg, suspension in 0.5% w/v Klucel GF and 0.5% w/v Poloxamer F-68
  AUC(0-inf): 2470 ng·h/mL
[2]; in vivo, oral 10 mg/kg, suspension in 0.5% w/v Klucel GF and 0.5% w/v Poloxamer F-68, read-out: AUC0-t
  AUC0-t: 2410 ng·h/mL
[2]; in vivo, oral 10 mg/kg, suspension in 0.5% w/v Klucel GF and 0.5% w/v Poloxamer F-68, read-out: Cmax
  Cmax: 388 ng/mL
[2]; oral 10 mg/kg suspension
  Cmax and AUC compared to the formulation containing crystalline form: significant increase in Cmax and AUC
[2]; [6]
  MRT: 5.6 h
  Tmax: 2 h
  t1/2: 4.7 h
[3]; particularly at early time points
  aqueous solubility in an IV formulation compared to the crystalline form: improved the aqueous solubility
[3]; saline/PEG400/Tween80 (88:10:1) IV formulation, aqueous with cosolvent or surfactant or cyclodextrin, thermodynamic from solid, saline/PEG400/Tween80 (88:10:1), 8 Hr.
  solubility at 8 h: 35.6 µg/mL (≈ 61.2 µM)
[3]; saline/PEG400/Tween80 (88:10:1) IV formulation, aqueous with cosolvent or surfactant or cyclodextrin, thermodynamic from solid, saline/PEG400/Tween80 (88:10:1), 24 Hr.
  solubility at 24 h: 28.9 µg/mL (≈ 49.7 µM)
[3]; saline/PEG400/Tween80 (88:10:1) IV formulation, aqueous with cosolvent or surfactant or cyclodextrin, thermodynamic from solid, saline/PEG400/Tween80 (88:10:1), 48 Hr.
  solubility at 48 h: 26.9 µg/mL (≈ 46.2 µM)
[3]; saline/PEG400/Tween80 (88:10:1) IV formulation, aqueous with cosolvent or surfactant or cyclodextrin, thermodynamic from solid, saline/PEG400/Tween80 (88:10:1), 96 Hr.
  solubility at 96 h: 26.3 µg/mL (≈ 45.2 µM)
[3]; [7]
  Solubility in IV Formulation: 140.0 µg/mL (≈ 241 µM)
[3]; [8]
  Solubility in IV Formulation: 150.6 µg/mL (≈ 259 µM)
[3]; [9]
  Solubility in IV Formulation: 96.1 µg/mL (≈ 165 µM)
[3]; [10]
  Solubility in IV Formulation: 52.8 µg/mL (≈ 90.8 µM)
